This is an account of results in patent US20250304928A1, “AN OMEGA-TRANSAMINASE MUTANT BASED ON […] SEQUENCE RECONSTRUCTION” (priority 2021, published 2025).

Data set [1] has as its target T1, Aspergillus terreus ω-transaminase mutant Ancata-124 (D5E-A12Q-I17V-S20A-T21S-E22A-T23S-A42H-I77L-T78S-T85A-R90K-D96E-Q97E-E104D-T130S-R130K-I135L-138insN-V143I (Aspergillus terreus, UniProt Q0C8G1, A12Q/A195S/A246V/A313P/A42H/D153E/D5E/D96E/E104D/E22A/E248R/E323S/F250N/F258V/G292D/H210N/I135L/I17V/I295V/I77L/INS138N/INS325KS/L263M/M154V/M288K/N245D/N322E/N325S/Q236E/Q294K/Q97E/R131K/R266Q/R324A/R90K/S20A/T130S/T21S/T23S/T284S/T78S/T85A/V143I/V157T/V162I/V163I)).
T1 construct: ancestral reconstruction Ancata-124
Briefly: Enzyme kinetic parameters of mutant ω-transaminase Ancata-124. It is filed as biochemical. The procedure: (§1) The enzyme activity of wild type and mutant ω-transaminase at different concentrations was determined by enzyme activity assay. The reaction rates V for different substrates as well as different substrate concentrations [S] were brought into the Michaelis-Menten equation V=Vmax×[S]/(Km+[S]), nonlinear curve fit was performed using Origin 8.0 software, and the enzyme kinetic parameters Km and Vmax were calculated for wild type and mutants; the conversion number kcat and catalytic efficiency kcat/Km were calculated for wild type and mutants from the equation kcat=Vmax/[E], where [E] was the molar concentration of the enzyme.

Data set [2] deals with T2, Aspergillus terreus ω-transaminase mutant Ancata-101 (D5E-A12Q-I17V-S20A-T21S-E22A-T23S-A42H-I77L-T78S-T85S-L87M-R90K-D96E-Q97E-E104D-T130S-R131K-D134E-I135L-13 (Aspergillus terreus, UniProt Q0C8G1, A12Q/A174S/A195S/A246V/A313P/A42H/D134E/D153E/D5E/D96E/E104D/E22A/E248R/E323S/F250N/F258V/G292D/H210N/I135L/I175M/I17V/I295V/I77L/INS138N/INS325KKSG/L87M/M288K/N245D/N322E/N325S/Q236E/Q294K/Q97E/R131K/R266Q/R324A/R90K/S20A/T130S/T21S/T23S/T284S/T78S/T85S/V143I/V157T/V162I/V163I/V188T)).
T2 construct: ancestral reconstruction Ancata-101
Kind of data set: Enzyme kinetic parameters of mutant ω-transaminase Ancata-101. It is filed as biochemical. Here is the method:
as §1

Data set [3] has as its target Aspergillus terreus ω-transaminase, wild type (WT-AT), SEQ ID NO. 2 (Aspergillus terreus, UniProt Q0C8G1). Briefly: Enzyme kinetic parameters of wild type ω-transaminase (WT-AT). It is filed as biochemical. The conditions noted are these: PBS 50 mM, pH 8.0, 0.01 mM PLP. Here is the method: The wild-type ω-transaminase from Aspergillus terreus has an amino acid sequence as shown in SEQ ID NO. 2, and has a gene sequence as shown in SEQ ID NO. 1.
as §1

In data set [4] the test system is CC(=O)C(=O)O. Briefly: Enzyme kinetic parameters of mutant ω-transaminase Ancata-101. It is filed as biochemical, Aspergillus terreus. The conditions noted are these: other: PBS 50 mM, pH 8.0, 0.01 mM PLP.
Data set [5] deals with C[C@@H](N)c1ccccc1. The data set is described as above. The conditions noted are these: other: PBS 50 mM, pH 8.0, 0.01 mM PLP. It is filed as biochemical, Aspergillus terreus.
Data set [6] deals with CC(=O)C(=O)O. Briefly: Enzyme kinetic parameters of mutant ω-transaminase Ancata-124. It is filed as biochemical, Aspergillus terreus. The conditions noted are these: other: PBS 50 mM, pH 8.0, 0.01 mM PLP, 25.0 °C.
For data set [7], the system named is C[C@@H](N)c1ccccc1. The data set is described as above. It is filed as biochemical, Aspergillus terreus. The conditions noted are these: other: PBS 50 mM, pH 8.0, 0.01 mM PLP, 25.0 °C.

As to `CC(=O)C(=O)O` [pyruvate, pyruvic acid], the “kcat (pyruvate)” value was found to be 0.74 ± 0.03 s⁻¹ in data set [1] (PBS 50 mM, pH 8.0, 0.01 mM PLP); 1.50 ± 0.03 s⁻¹ in data set [2] (PBS 50 mM, pH 8.0, 0.01 mM PLP); 0.50 ± 0.01 s⁻¹ in data set [3]. Also, the “kcat/Km (pyruvate)” value in data set [1] (PBS 50 mM, pH 8.0, 0.01 mM PLP) turned out to be 790 M⁻¹ s⁻¹; in data set [2] (PBS 50 mM, pH 8.0, 0.01 mM PLP) it was 1300 M⁻¹ s⁻¹; in data set [3], 2220 M⁻¹ s⁻¹. In addition, the “catalytic efficiency for pyruvic acid compared with wild type” value is given as “lower than that of the wild type” in data set [1] (in words, versus wild type) and “lower than that of the wild type” in data set [2] (in words, versus wild type). For the same compound, in data set [3] (read-out: Km (pyruvate)), the Km was found to be 230 ± 20 µM.

Regarding `C[C@@H](N)c1ccccc1` [α-MBA, (R)-(+)-α-methylbenzylamine], the “Km (α-MBA) compared with wild type” value is on record as “slightly higher than that of the wild type” in data set [1] (in words, versus wild type) and “slightly higher than that of the wild type” in data set [2] (in words, versus wild type).

For “Aspergillus terreus ω-transaminase mutant Ancata-101 (D5E-A12Q-I17V-S20A-T21S-E22A-T23S-A42H-I77L-T78S-T85S-L87M-R90K-D96E-Q97E-E104D-T130S-R131K-D134E-I135L-138insN-V143I-D153E-V157T-V162I-V163I-A174S-I175M-V188T-A195S-H210N-Q236E-N245D-A246V-E248R-F250N-F258V-R266Q-T284S-M288K-G292D-Q294K-I295V-A313P-N322E-E323S-R324A-N325S-325insKKSG), SEQ ID NO. 4 (Aspergillus terreus NIH2624; A12Q/A174S/A195S/A246V/A313P/A42H/D134E/D153E/D5E/D96E/E104D/E22A/E248R/E323S/F250N/F258V/G292D/H210N/I135L/I175M/I17V/I295V/I77L/INS138N/INS325KKSG/L87M/M288K/N245D/N322E/N325S/Q236E/Q294K/Q97E/R131K)”, the results for the Km in the data set on CC(=O)C(=O)O [4] and with C[C@@H](N)c1ccccc1 [5] were 1150 ± 20 µM and 280 ± 30 µM, respectively.

For the compound “Aspergillus terreus ω-transaminase mutant Ancata-124 (D5E-A12Q-I17V-S20A-T21S-E22A-T23S-A42H-I77L-T78S-T85A-R90K-D96E-Q97E-E104D-T130S-R130K-I135L-138insN-V143I-D153E-M154V-V157T-V162I-V163I-A195S-H210N-Q236E-N245D-A246V-E248R-F250N-F258V-L263M-R266Q-T284S-M288K-G292D-Q294K-I295V-A313P-N322E-E323S-R324A-N325S-325insKS), SEQ ID NO. 6 (Aspergillus terreus NIH2624; A12Q/A195S/A246V/A313P/A42H/D153E/D5E/D96E/E104D/E22A/E248R/E323S/F250N/F258V/G292D/H210N/I135L/I17V/I295V/I77L/INS138N/INS325KS/L263M/M154V/M288K/N245D/N322E/N325S/Q236E/Q294K/Q97E/R131K/R266Q/R324A/)”, the results for the Km in the data set on CC(=O)C(=O)O [6] and with C[C@@H](N)c1ccccc1 [7] were 930 ± 10 µM and 280 ± 10 µM, respectively.

For orientation: Km means the substrate concentration at which the rate is half of its maximum.
